Data reported in ChEMBL document CHEMBL3044631, “Synthesis of 2-[4,5-dimethyl-1-(phenylamino)-1H-imidazol-2-ylthio]-N-(thiazole-2-yl)acetamide derivatives and their anticancer activities” (2013).

What was measured:
Format in all cases: functional
HT-29 = assay: Anticancer activity against Homo sapiens (human) HT-29 cells assessed as cell growth promotion at 10 uM after 48 hr by SRB assay
HOP-62 = assay: Anticancer activity against Homo sapiens (human) HOP62 cells after 48 hr by SRB assay; conditions: HOP-62, 48 h
SK-OV-3 = assay: Anticancer activity against Homo sapiens (human) SKOV3 cells assessed as cell growth promotion at 10 uM after 48 hr by SRB assay
HCT-15 = assay: Anticancer activity against Homo sapiens (human) HCT15 cells after 48 hr by SRB assay; conditions: HCT-15, 48 h
SW-620 = assay: Anticancer activity against Homo sapiens (human) SW620 cells assessed as cell growth promotion at 10 uM after 48 hr by SRB assay
MDA-MB-468 [1] = assay: Anticancer activity against Homo sapiens (human) MDA-MB-468 cells after 48 hr by SRB assay; conditions: MDA-MB-468, 48 h
Hs-578T = assay: Anticancer activity against Homo sapiens (human) Hs 578T cells assessed as cell growth promotion at 10 uM after 48 hr by SRB assay
MOLT-4 [2] = assay: Anticancer activity against Homo sapiens (human) MOLT4 cells after 48 hr by SRB assay; conditions: MOLT-4, 48 h
SK-MEL-28 = assay: Anticancer activity against Homo sapiens (human) SK-MEL-28 cells assessed as cell growth promotion at 10 uM after 48 hr by SRB assay
NCI-H460 = assay: Anticancer activity against Homo sapiens (human) NCI-H460 cells assessed as cell growth promotion at 10 uM after 48 hr by SRB assay
HCT-116 [3] = assay: Anticancer activity against Homo sapiens (human) HCT116 cells after 48 hr by SRB assay; conditions: HCT-116, 48 h
ACHN = assay: Anticancer activity against Homo sapiens (human) ACHN cells after 48 hr by SRB assay
CCRF-CEM = assay: Anticancer activity against Homo sapiens (human) CCRF-CEM cells assessed as cell growth promotion at 10 uM after 48 hr by SRB assay
MDA-MB-435 = assay: Anticancer activity against Homo sapiens (human) MDA-MB-435 cells after 48 hr by SRB assay; conditions: MDA-MB-435, 48 h
T47D = assay: Anticancer activity against Homo sapiens (human) T47D cells after 48 hr by SRB assay
A549 [4] = assay: Anticancer activity against Homo sapiens (human) A549/ATCC cells assessed as cell growth promotion at 10 uM after 48 hr by SRB assay
IGROV-1 = assay: Anticancer activity against Homo sapiens (human) IGROV1 cells assessed as cell growth promotion at 10 uM after 48 hr by SRB assay
OVCAR-5 = assay: Anticancer activity against Homo sapiens (human) OVCAR5 cells after 48 hr by SRB assay; conditions: OVCAR-5, 48 h
SNB-19 = assay: Anticancer activity against Homo sapiens (human) SNB19 cells assessed as cell growth promotion at 10 uM after 48 hr by SRB assay
SR = assay: Anticancer activity against Homo sapiens (human) SR cells assessed as cell growth promotion at 10 uM after 48 hr by SRB assay
LOX IMVI = assay: Anticancer activity against Homo sapiens (human) LOXIMVI cells after 48 hr by SRB assay
NCI-H522 = assay: Anticancer activity against Homo sapiens (human) NCI-H522 cells after 48 hr by SRB assay; conditions: NCI-H522, 48 h
K562 = assay: Anticancer activity against Homo sapiens (human) K562 cells assessed as cell growth promotion at 10 uM after 48 hr by SRB assay
BT-549 = assay: Anticancer activity against Homo sapiens (human) BT549 cells assessed as cell growth promotion at 10 uM after 48 hr by SRB assay
HCT-116 [5] = assay: Anticancer activity against Homo sapiens (human) HCT116 cells assessed as cell growth promotion at 10 uM after 48 hr by SRB assay
SNB-75 [6] = assay: Anticancer activity against Homo sapiens (human) SNB75 cells assessed as cell growth promotion at 10 uM after 48 hr by SRB assay
HL-60(TB) = assay: Anticancer activity against Homo sapiens (human) HL-60(TB) cells after 48 hr by SRB assay; conditions: HL-60, 48 h
A549 [7] = assay: Anticancer activity against Homo sapiens (human) A549/ATCC cells after 48 hr by SRB assay; conditions: A549, 48 h
U-251 = assay: Anticancer activity against Homo sapiens (human) U251 cells assessed as cell growth promotion at 10 uM after 48 hr by SRB assay
COLO 205 = assay: Anticancer activity against Homo sapiens (human) COLO205 cells after 48 hr by SRB assay; conditions: COLO 205, 48 h
UACC-62 = assay: Anticancer activity against Homo sapiens (human) UACC62 cells after 48 hr by SRB assay; conditions: UACC-62, 48 h
NCI/ADR-RES = assay: Anticancer activity against Homo sapiens (human) NCI/ADR-RES cells assessed as cell growth promotion at 10 uM after 48 hr by SRB assay
SNB-75 [8] = assay: Anticancer activity against Homo sapiens (human) SNB75 cells after 48 hr by SRB assay; conditions: SNB-75, 48 h
CAKI-1 = assay: Anticancer activity against Homo sapiens (human) CAKI-1 cells assessed as cell growth promotion at 10 uM after 48 hr by SRB assay
MOLT-4 [9] = assay: Anticancer activity against Homo sapiens (human) MOLT4 cells assessed as cell growth promotion at 10 uM after 48 hr by SRB assay
MDA-MB-468 [10] = assay: Anticancer activity against Homo sapiens (human) MDA-MB-468 cells assessed as cell growth promotion at 10 uM after 48 hr by SRB assay
[11] = read-out: LC50 (the source's name)

Structure (SMILES): Cc1ccc(Nn2c(SCC(=O)Nc3nc(-c4ccccc4)cs3)nc(C)c2C)cc1
- Activity (HT-29): 56.13%
- GI50 (HOP-62): 18.4 µM
- LC50 (HOP-62): > 100 µM
- Activity (SK-OV-3): 69.62%
- GI50 (HCT-15): 5.17 µM
- TGI (HCT-15): > 100 µM
- CC50 (HCT-15; [11]): > 100 µM
- Activity (SW-620): 98.8%
- GI50 (MDA-MB-468 [1]): 1.7 µM
- LC50 (MDA-MB-468 [1]): > 100 µM
- TGI (MDA-MB-468 [1]): 6.67 µM
- Activity (Hs-578T): 105.97%
- GI50 (MOLT-4 [2]): 3.46 µM
- LC50 (50% lethal concentration) (MOLT-4 [2]): > 100 µM
- TGI (MOLT-4 [2]): > 100 µM
- Activity (SK-MEL-28): 77.24%
- Activity (NCI-H460): 78.13%
- GI50 (HCT-116 [3]): 2.82 µM
- LC50 (HCT-116 [3]): > 100 µM
- TGI (HCT-116 [3]): 26.5 µM
- GI50 (ACHN): 4.06 µM
- LC50 (concentration killing 50% of cells) (ACHN): > 100 µM
- TGI (ACHN): 62.9 µM
- Activity (CCRF-CEM): 57.71%
- GI50 (MDA-MB-435): 2.66 µM
- LC50 (concentration killing 50% of cells) (MDA-MB-435): > 100 µM
- TGI (MDA-MB-435): 9.54 µM
- GI50 (T47D): 1.85 µM
- TGI (T47D): 10.4 µM
- CC50 (T47D; [11]): > 100 µM
- Activity (A549 [4]): 46.29%
- Activity (IGROV-1): 86%
- GI50 (OVCAR-5): 17.2 µM
- LC50 (OVCAR-5): > 100 µM
- TGI (OVCAR-5): > 100 µM
- Activity (SNB-19): 74.35%
- Activity (SR): 72.64%
- GI50 (LOX IMVI): 3.32 µM
- LC50 (50% lethal concentration) (LOX IMVI): > 100 µM
- TGI (LOX IMVI): 19.3 µM
- GI50 (NCI-H522): 2.97 µM
- LC50 (50% lethal concentration) (NCI-H522): > 100 µM
- TGI (NCI-H522): 86.8 µM
- Activity (K562): 37.67%
- Activity (BT-549): 63.51%
- Activity (HCT-116 [5]): 40.22%
- Activity (SNB-75 [6]): 38.33%
- GI50 (HL-60(TB)): 4.64 µM
- TGI (HL-60(TB)): 39.1 µM
- CC50 (HL-60(TB); [11]): > 100 µM
- GI50 (A549 [7]): 3.03 µM
- LC50 (A549 [7]): > 100 µM
- TGI (A549 [7]): > 100 µM
- Activity (U-251): 49.3%
- GI50 (COLO 205): 3.98 µM
- TGI (COLO 205): 34.4 µM
- CC50 (COLO 205; [11]): > 100 µM
- GI50 (UACC-62): 3.15 µM
- LC50 (UACC-62): > 100 µM
- TGI (UACC-62): > 100 µM
- Activity (NCI/ADR-RES): 34.4%
- GI50 (SNB-75 [8]): 2.81 µM
- LC50 (SNB-75 [8]): > 100 µM
- TGI (SNB-75 [8]): > 100 µM
- Activity (CAKI-1): 53.6%
- Activity (MOLT-4 [9]): 54.72%
- Activity (MDA-MB-468 [10]): 17.71%
